Here are results for 44 molecules from ChEMBL document CHEMBL1152388, “Identification of substituted pyrazolo[1,5-a]quinazolin-5(4H)-one as potent poly(ADP-ribose)polymerase-1 (PARP-1) inhibitors” (Bioorg Med Chem Lett, 2009).

Assay [1] deals with Poly [ADP-ribose] polymerase 1 (Homo sapiens, UniProt P09874). As to the kind of experiment: Inhibition of PARP1 by scintillation proximity assay. On the technique in general: Scintillation proximity formats need no separation of bound from free tracer.
Assay [2] has as its system HeLa. As to the kind of experiment: Inhibition of PAR polymer formation in H2O2-stimulated human HeLa cells. It counts as functional, cell-based.

pEC50, pIC50: −log10 of the molar value.

Poly [ADP-ribose] polymerase 1, sequence (P09874 whole entry): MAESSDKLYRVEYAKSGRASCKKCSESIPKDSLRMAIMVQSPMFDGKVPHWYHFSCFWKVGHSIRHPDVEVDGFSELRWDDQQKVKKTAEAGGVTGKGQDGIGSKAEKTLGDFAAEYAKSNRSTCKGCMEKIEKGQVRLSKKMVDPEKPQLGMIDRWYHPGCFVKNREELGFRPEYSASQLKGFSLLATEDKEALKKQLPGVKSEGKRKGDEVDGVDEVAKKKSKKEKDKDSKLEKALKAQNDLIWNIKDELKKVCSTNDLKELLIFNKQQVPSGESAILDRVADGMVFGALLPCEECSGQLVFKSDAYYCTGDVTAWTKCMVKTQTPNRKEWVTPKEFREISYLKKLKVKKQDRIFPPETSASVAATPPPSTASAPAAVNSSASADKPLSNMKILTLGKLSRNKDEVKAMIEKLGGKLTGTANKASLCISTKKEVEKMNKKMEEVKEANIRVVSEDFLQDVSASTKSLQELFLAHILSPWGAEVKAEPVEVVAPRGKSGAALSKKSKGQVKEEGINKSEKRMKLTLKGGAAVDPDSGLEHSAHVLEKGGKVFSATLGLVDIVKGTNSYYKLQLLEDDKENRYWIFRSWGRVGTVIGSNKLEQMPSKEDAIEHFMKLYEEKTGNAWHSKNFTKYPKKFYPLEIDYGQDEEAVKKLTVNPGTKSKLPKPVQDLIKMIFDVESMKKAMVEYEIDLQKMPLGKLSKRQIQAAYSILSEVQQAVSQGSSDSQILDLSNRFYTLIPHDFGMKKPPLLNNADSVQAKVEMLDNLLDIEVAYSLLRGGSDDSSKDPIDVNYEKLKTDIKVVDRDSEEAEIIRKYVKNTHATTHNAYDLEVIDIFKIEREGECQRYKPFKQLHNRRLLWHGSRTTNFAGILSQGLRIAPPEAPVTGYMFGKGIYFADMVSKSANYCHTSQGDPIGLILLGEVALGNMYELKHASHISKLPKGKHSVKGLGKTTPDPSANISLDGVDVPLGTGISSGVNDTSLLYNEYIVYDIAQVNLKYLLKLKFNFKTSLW

By pIC50 is commonly meant the IC50 on a negative log10 scale, so that one unit is a factor of ten. Lower therefore signals a high IC50. For the molecule `CC(C)Cc1cc2[nH]c(=O)c3ccccc3n2n1`, in assay [1], the negative-log IC50 (pIC50) is 6.40.

Molecule `O=c1[nH]c2cc(-c3ccc(OC(F)(F)F)cc3)nn2c2ccccc12` had a negative logarithm of the IC50 (pIC50) in assay [1] of under 6.00.

The molecule `CN1CCCN(C(=O)c2cnn3c2[nH]c(=O)c2ccccc23)CC1` had a negative-log IC50 (pIC50) in assay [1] of under 6.00.

Take `O=C(c1cccc(-c2cc3[nH]c(=O)c4ccccc4n3n2)c1)N1CCN2CCC[C@H]2C1`: in assay [1], the negative logarithm of the IC50 (pIC50) was 6.30.

Take `O=c1[nH]c2cc(C3CCCCC3)nn2c2ccccc12`: in assay [1], the pIC50 was 6.70.

`Cc1ccc(-c2cc3[nH]c(=O)c4ccccc4n3n2)cc1` gave a pIC50 in assay [1] of 6.30. This pIC50 lies 0.40 log units lower than the previous one.

Consider `CN1CCC(CNC(=O)c2cc3[nH]c(=O)c4ccccc4n3n2)C1` (stereo not given), for which the negative-log IC50 (pIC50) in assay [1] was 7.10.

In assay [1], `N#Cc1ccc(-c2cc3[nH]c(=O)c4ccccc4n3n2)cc1` gave a negative logarithm of the IC50 (pIC50) of under 6.00.

With `CN(C)CCN(C)C(=O)c1cc2[nH]c(=O)c3ccccc3n2n1`, the negative-log IC50 (pIC50) in assay [1] was 7.00.

On to `O=c1[nH]c2cc(-c3cccc(Cl)c3)nn2c2ccccc12`, for which, in assay [1], the pIC50 is 6.30.

In assay [1], `O=c1[nH]c2cc(-c3cccc(Br)c3)nn2c2ccccc12` had a pIC50 of 6.22.

`O=C(NCCCN1CCOCC1)c1cc2[nH]c(=O)c3ccccc3n2n1`: the pIC50 in assay [1] is 6.85.

Molecule `O=c1[nH]c2cc(-c3cccs3)nn2c2ccccc12` had a pIC50 in assay [1] of 6.82.

Regarding `O=c1[nH]c2cc(-c3ccco3)nn2c2ccccc12`, the pIC50 in assay [1] is 6.70.

In the case of `Cc1cc2[nH]c(=O)c3ccccc3n2n1`, in assay [1], the pIC50 was 6.52.

In general, pEC50 refers to the negative decadic logarithm of the EC50, by convention in mol/L. In assay [1], `CN1CCCN(C(=O)c2cc3[nH]c(=O)c4ccccc4n3n2)CC1` showed a pIC50 of 8.00. For the same molecule, the negative-log EC50 (pEC50) in assay [2] was 5.41.

In the case of `COc1cccc(-c2cc3[nH]c(=O)c4ccccc4n3n2)c1OC`, the pIC50 in assay [1] was 7.00.

`CN(C)CCN(C)C(=O)c1cccc(-c2cc3[nH]c(=O)c4ccccc4n3n2)c1` showed a negative logarithm of the IC50 (pIC50) in assay [1] of 6.10.

`CN1CCN(C(=O)c2cnn3c2[nH]c(=O)c2ccccc23)CC1` showed a negative-log IC50 (pIC50) in assay [1] of under 6.00.

As to `CN1CCN(C(=O)c2ccc(-c3cc4[nH]c(=O)c5ccccc5n4n3)cc2)CC1`, the negative logarithm of the IC50 (pIC50) in assay [1] was 5.85.

In assay [1], `CCc1ccc(-c2cc3[nH]c(=O)c4ccccc4n3n2)cc1` gave a negative logarithm of the IC50 (pIC50) of 6.30.

In assay [1], `O=c1[nH]c2cc(-c3ccc(Br)cc3)nn2c2ccccc12` showed a pIC50 of 6.15.

With `CN(C)CCN(C)C(=O)c1ccc(-c2cc3[nH]c(=O)c4ccccc4n3n2)cc1`, the pIC50 in assay [1] was 5.89.

For `O=C(c1cc2[nH]c(=O)c3ccccc3n2n1)N1CCCNCC1`, the pIC50 in assay [1] is 7.52.

Consider `O=C(c1cc2[nH]c(=O)c3ccccc3n2n1)N1CCC(CN2CCOCC2)CC1`, for which the pIC50 in assay [1] was 5.96.

Molecule `O=C(NCCC1(N2CCOCC2)CCCC1)c1cc2[nH]c(=O)c3ccccc3n2n1` gave a pIC50 in assay [1] of 7.05.

On to `O=C(c1cnn2c1[nH]c(=O)c1ccccc12)N1CCCNCC1`, for which the pIC50 in assay [1] was under 6.00.

In assay [1], `CN1CCN(C(=O)c2cc3[nH]c(=O)c4ccccc4n3n2)CC1` had a pIC50 of 6.52.

The molecule `COc1ccc(-c2cc3[nH]c(=O)c4ccccc4n3n2)c(OC)c1` showed a pIC50 in assay [1] of 6.70.

With `CN1CCN(C(=O)c2cccc(-c3cc4[nH]c(=O)c5ccccc5n4n3)c2)CC1`, the negative logarithm of the IC50 (pIC50) in assay [1] is 6.00. This pIC50 lies 0.70 log units lower than the previous one.

For the molecule `CN1CCC(CNC(=O)c2cc3[nH]c(=O)c4ccccc4n3n2)CC1`, the negative logarithm of the IC50 (pIC50) in assay [1] is 7.15. This pIC50 is 1.15 log units higher than that of the molecule before.

As to `O=c1[nH]c2cc(-c3ccc(F)cc3)nn2c2ccccc12`, the negative-log IC50 (pIC50) in assay [1] was under 6.00.

Molecule `O=C(NCCN1CCOCC1)c1cnn2c1[nH]c(=O)c1ccccc12` had a negative-log IC50 (pIC50) in assay [1] of under 6.00.

Take `COc1cc(-c2cc3[nH]c(=O)c4ccccc4n3n2)cc(OC)c1OC`: the pIC50 in assay [1] is 7.52.

For the molecule `O=C(c1cc2[nH]c(=O)c3ccccc3n2n1)N1CCN(CC2CC2)CC1`, the pIC50 in assay [1] is 6.52.

In the case of `CCCc1ccc(-c2cc3[nH]c(=O)c4ccccc4n3n2)cc1`, the negative-log IC50 (pIC50) in assay [1] was under 6.00.

As for `O=C(c1ccc(-c2cc3[nH]c(=O)c4ccccc4n3n2)cc1)N1CCN2CCC[C@H]2C1`, the pIC50 in assay [1] is 5.60.

`O=C(c1cc2[nH]c(=O)c3ccccc3n2n1)N1CCN2CCC[C@H]2C1`: the pIC50 in assay [1] was 6.22.

On to `COc1ccc(-c2cc3[nH]c(=O)c4ccccc4n3n2)cc1OC`, for which the pIC50 in assay [1] is 6.70.

As for `O=C(NCCN1CCOCC1)c1cc2[nH]c(=O)c3ccccc3n2n1`, the pIC50 in assay [1] is 6.85.

Turning to `O=c1[nH]c2cc(-c3ccc(Cl)cc3)nn2c2ccccc12`, the negative-log IC50 (pIC50) in assay [1] was 6.30.

`O=c1[nH]c2cc(-c3cccc(F)c3)nn2c2ccccc12` gave a pIC50 in assay [1] of under 6.00.

With `CC(C)(C)c1ccc(-c2cc3[nH]c(=O)c4ccccc4n3n2)cc1`, the negative-log IC50 (pIC50) in assay [1] was under 6.00.

With `O=c1[nH]c2cc(-c3ccccc3)nn2c2ccccc12`, the pIC50 in assay [1] was 7.00.
